Measured values from ChEMBL document CHEMBL1151635, “Antineoplastic agents, 105. Zephyranthes grandiflora” (1984).

Assays:
Assay type in all cases: functional
P388 [1] = test: In vivo cytotoxicity against mouse P388 cells at 0.75 to 6 mg/kg relative to control; conditions: dose mg/kg 0.75-6
P388 [2] = test: In vivo cytotoxicity against mouse P388 cells at 12.5 mg/kg relative to control
P388 [3] = test: Cytotoxicity against mouse P388 cells; conditions: read-out: ED50 (the source's name)
P388 [4] = test: In vivo cytotoxicity against mouse P388 cells at 0.78 to 3.1 mg/kg relative to control; conditions: dose mg/kg 0.78-3.1

Structure (SMILES): O=C1N[C@H]2[C@H](O)[C@H](O)[C@@H](O)[C@H](O)[C@@H]2c2cc3c(c(O)c21)OCO3 [PANCRATISTATIN]
- T/C (P388 [1]): 138%
- T/C (P388 [2]): 206%
- EC50 (P388 [3]): < 0.01 µg/mL
- T/C (P388 [4]): 135%
